Literature values as cited in US20050065094A1, “Use of telmisartan for the prevention and treatment of vascular headache” (Boehringer Ingelheim International GmbH, priority 2003, published 2005).

Assays:
[1] = system: patients having mild/moderate hypertension; conditions: placebo-controlled
[2] = system: patients suffering from migraine; conditions: placebo-controlled crossover

Row | SMILES | incidence of headache [1] | tolerability profile [2]
1 | CCCCC1=NC2(CCCC2)C(=O)N1Cc1ccc(-c2ccccc2-c2nnn[nH]2)cc1 [irbesartan] | significant reduction in the incidence of headache | –
2 | CCOc1nc2cccc(C(=O)O)c2n1Cc1ccc(-c2ccccc2-c2nnn[nH]2)cc1 [candesartan] | – | good tolerability profile
